The text below walks through data of PMC12818745 (ACS Chemical Neuroscience, 2025).

Series [1] concerns the target eeAChE (Electrophorus electricus AChE) (Electrophorus electricus, UniProt O42275). The experiment in a line: Cholinesterase inhibition assay (modified Ellman's method), eeAChE. The settings on record: for SI eeAChE: ratio eqBChE IC50/eeAChE IC50. The series is classed as biochemical. An excerpt:
(§1) Compound series A and B were initially screened for their cholinesterase activity against eeAChE (Electrophorus electricus AChE) and eqBChE (equine serum butyrylcholinesterase), using an adaptation of the Ellman’s method. […]. […] Similarly, replacing the terminal triple bond in 7l with a nitrile group reduced its activity, while replacing the O-propargyl group with an N,N-dipropargyl group in 10 enhanced the inhibition of both enzymes, particularly BChE (Table ). The installation of an additional aryl ring in 7o further improved AChE inhibition, slightly increasing selectivity toward this enzyme. […]. […]. […]. The inhibitory activity of the synthesized compounds toward eeAChE and eqBChE was evaluated spectrophotometrically through a 96-well microplate modified Ellman’s method. The solutions of both enzymes were prepared as 0.025 U/mL in phosphate buffer at pH 7, from stock solutions of 5.05 U/mL and 7.50 U/mL, respectively. The stock solutions for the target compounds (0.1 M) were prepared in dimethyl sulfoxide (DMSO). […] The reaction mixture was prepared with 100 μL of the enzyme (eeAChE or eqBChE) and 50 μL of the test compound (or DMSO/water, not exceeding 0.2% of DMSO in the wells; i.e blank samples). After 5 min of the preincubation period at 37 °C, 50 μL of ATChI or BTChI and 50 μL of DTNB were added to each well, thus initiating the enzymatic reaction. The absorbance values were measured at 415 nm, for a total of 7.5 min, at every 2.5 min, using a microplate reader (Synergy multimode reader; BioTek). […]. All experiments were performed in triplicate.
Background: In Ellman's method for cholinesterases, released thiocholine reacts with DTNB.

The target of another series is T1, Aβ42 aggregation (Homo sapiens, UniProt P05067).
T1 construct: expressed in transfected cells; host or cells: E. coli BL21 (DE3), pET vector
T1 sequence (P05067 672-713): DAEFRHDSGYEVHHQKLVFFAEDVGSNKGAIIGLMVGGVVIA
Put plainly: Thioflavin S assay of Aβ42 aggregation in E. coli cells overexpressing Aβ42. The settings on record: read-out: Aβ42 inhibition %. The series is classed as cell-based, Escherichia coli. The protocol:
(§2) The antiaggregating profiles of both series A and B were evaluated using a fluorescence Thioflavin S (ThS) assay in cellulo, which monitors ThS fluorescence in the presence of β-sheet-rich structures, such as Aβ and tau protein aggregates. This method, based on recombinant Escherichia coli (E. coli) bacteria overexpressing insoluble aggregates, offers a simple and cost-effective approach to model aggregation processes in mammalian systems and has been validated for use in drug discovery studies. , Compounds were tested at a screening concentration of 50 μM for their ability to inhibit Aβ42 aggregation. The results, summarized in Table , reveal distinct antiaggregating profiles between series A and B, which are once again influenced by their structural differences.
42 Amino acid Aβ42 was cloned and overexpressed in E. coli BL21 (DE3) competent cells using the pET vector harboring the DNA sequence of Aβ42. Due to the addition of the initiation codon ATG preceding genes, the resulting overexpressed peptide contained an additional methionine residue at its N-terminus. For the preparation of overnight cultures, a colony of BL21 (DE3) cells carrying the plasmid for expression was inoculated in 10 mL of M9 minimal medium supplemented with 50 μg mL^–1 kanamycin at 37 °C. Subsequently, a 1:500 dilution of the overnight culture was added to fresh M9 minimal medium containing 50 μg mL^–1 kanamycin and 25 μM ThS. The bacterial culture was then incubated at 37 °C with agitation at 250 rpm. Upon reaching an OD600 of 0.6, 980 μL of the culture was transferred into 1.5 mL Eppendorf tubes, each containing 10 μL of the compound to be tested dissolved in DMSO and 10 μL of 100 mM isopropyl 1-thio-β-D-galactopyranoside (IPTG) or, alternatively, 10 μL of water for the noninduced controls. The final compound concentration was adjusted to […]. The samples were allowed to grow overnight at 37 °C with agitation at 1400 rpm using a Thermomixer (Eppendorf). Negative controls, representing maximum amyloid presence, utilized free DMSO.
(§3) ThS (T1892) and all other chemical reagents were purchased from Sigma (St. Louis, MO). Stock solutions of ThS (250 μM) were prepared using doubly distilled water purified via a Milli-Q system (Millipore). For the fluorescence assay, ThS spectra were recorded utilizing an AmincoBowman series 2 luminescence spectrophotometer (Aminco-Bowman AB2, SLM Aminco, Rochester, NY) within the range of 460 to 600 nm at a temperature of 25 °C. The excitation wavelength employed was 445 nm, with slit widths set at 4 nm. The emission at 485 nm, corresponding to the ThS peak observed in the presence of amyloids, was recorded. To standardize ThS fluorescence relative to bacterial concentration in both in vitro and cell-based assays, the OD600 was determined using a Shimadzu UV-2401 PC UV–vis spectrophotometer. Fluorescence normalization was executed by setting the ThS fluorescence of bacterial cells expressing the peptide or protein in the absence of the drug as 100%, while that of bacterial cells not expressing the peptide or protein was established as 0%.

The target of the next series is T2, Tau protein aggregation (Homo sapiens, UniProt P10636).
T2 construct: For the cloning and overexpression of full-length tau protein; expressed in transfected cells; host or cells: E. coli BL21 (DE3) carrying pTARA and pRKT42
T2 sequence (P10636 other isoform, or with tags, fused parts or gaps): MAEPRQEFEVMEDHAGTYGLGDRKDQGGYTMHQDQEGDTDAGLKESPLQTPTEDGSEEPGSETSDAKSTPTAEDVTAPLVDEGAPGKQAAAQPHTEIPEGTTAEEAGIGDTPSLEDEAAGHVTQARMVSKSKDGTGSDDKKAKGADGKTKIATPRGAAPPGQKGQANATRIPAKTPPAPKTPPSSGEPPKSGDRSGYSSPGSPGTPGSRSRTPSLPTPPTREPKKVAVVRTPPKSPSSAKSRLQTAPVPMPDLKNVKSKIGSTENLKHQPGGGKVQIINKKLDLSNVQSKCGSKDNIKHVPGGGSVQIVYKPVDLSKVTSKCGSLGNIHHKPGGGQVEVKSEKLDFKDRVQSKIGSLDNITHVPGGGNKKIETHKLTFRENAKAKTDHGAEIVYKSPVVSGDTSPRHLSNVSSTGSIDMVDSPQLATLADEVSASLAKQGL
The experiment in a line: Thioflavin S assay of tau protein aggregation in E. coli cells overexpressing tau. Type of series: cell-based, Escherichia coli. Particulars: read-out: Tau inhibition %. On the procedure:
as §2
This strategic extension aimed to validate the chromeno[3,4-b]-xanthone scaffold for related aggregation targets, considering the structural and pathological similarities between Aβ and tau aggregation processes. […]. […] Nevertheless, it is important to interpret the results cautiously, as the inability of certain compounds to cross bacterial membranes, may have underestimated their true inhibitory activity in the assay.
For the cloning and overexpression of full-length tau protein, E. coli BL21 (DE3) competent cells were transformed first with the pTARA vector containing the RNA polymerase gene of phage T7 (T7RP), controlled by the PBAD promoter. Subsequently, E. coli BL21(DE3) competent cells containing pTARA were transformed with the pRKT42 vector encoding four repeats of tau protein in two inserts. Similar to the procedure for Aβ42, overnight cultures were prepared by inoculating colonies of BL21 (DE3) cells bearing the plasmids in M9 medium supplemented with 0.5% glucose, 50 μg mL^–1 ampicillin, and 12.5 μg mL^–1 chloramphenicol at 37 °C. Upon induction, a 1:500 dilution of the overnight culture was added to fresh M9 minimal medium containing 0.5% glucose, 50 μg mL^–1 ampicillin, 12.5 μg mL^–1 chloramphenicol, and 25 μM ThS. The subsequent steps mirrored those for the Aβ assay, including the addition of the compound to be tested dissolved in DMSO and 10 μL of 25% arabinose or, alternatively, 10 μL of water for the noninduced controls, with a final compound concentration of […]. Negative controls for tau overexpression utilized free DMSO.
as §3

The next series is described as follows: in vitro. Particulars: for Prediction (penetration into the CNS): class from PAMPA-BBB P e; for Papp at 2.5 h: pig, PAMPA, pH 7.4. On the procedure: To assess BBB permeability, a parallel artificial membrane permeability assay (PAMPA)-BBB was performed, which predicts passive BBB permeability using a brain lipid porcine membrane.
The prediction of the brain penetration was evaluated using a PAMPA-BBB. […] Next, 100 μL of these stock solutions were added to a solution of 1400 μL of EtOH and 3500 μL of PBS at pH 7.4, to reach 30% of EtOH concentration in the experiment. These solutions were filtered, using Filter PDVF membrane units (diameter 30 mm, pore size 0.45 μm, from Symta). After this, the acceptor 96-well microplate (Multiscreen, catalogue no. MAMCS9610, from Millipore) was filled with 180 μL of PBS/EtOH (70/30). […] After 5 min, 180 μL of each compound solution was added. 1–2 mg of each selected compound was dissolved in 1500 μL of EtOH and 3500 μL of PBS at pH 7.4, filtered, and then added to the donor 96-well plate to determine their ability to cross the brain barrier. After this, the donor plate was carefully put on the acceptor plate to form a “sandwich” and incubated for 2.5 h at 25 °C. During this period, the compounds diffused from the donor plate through the brain lipid membrane into the acceptor plate. Afterward, the donor plate was removed. A 96-well plate UV reader (Thermoscientific, Multiskan spectrum) was used to determine the concentration of compounds and commercial drugs in the acceptor and donor wells. Every sample was analyzed at three to five wavelengths, in three wells, and in two independent runs. […] Ten quality control compounds (previously mentioned) of known BBB permeability were included in each experiment to validate the analysis set.

The target in series [2] is T3, eqBChE (equine serum butyrylcholinesterase) (Equus caballus, UniProt P81908).
T3 construct: eqBChE (equine serum butyrylcholinesterase); from tissue; host or cells: equine serum
T3 sequence (P81908 whole entry): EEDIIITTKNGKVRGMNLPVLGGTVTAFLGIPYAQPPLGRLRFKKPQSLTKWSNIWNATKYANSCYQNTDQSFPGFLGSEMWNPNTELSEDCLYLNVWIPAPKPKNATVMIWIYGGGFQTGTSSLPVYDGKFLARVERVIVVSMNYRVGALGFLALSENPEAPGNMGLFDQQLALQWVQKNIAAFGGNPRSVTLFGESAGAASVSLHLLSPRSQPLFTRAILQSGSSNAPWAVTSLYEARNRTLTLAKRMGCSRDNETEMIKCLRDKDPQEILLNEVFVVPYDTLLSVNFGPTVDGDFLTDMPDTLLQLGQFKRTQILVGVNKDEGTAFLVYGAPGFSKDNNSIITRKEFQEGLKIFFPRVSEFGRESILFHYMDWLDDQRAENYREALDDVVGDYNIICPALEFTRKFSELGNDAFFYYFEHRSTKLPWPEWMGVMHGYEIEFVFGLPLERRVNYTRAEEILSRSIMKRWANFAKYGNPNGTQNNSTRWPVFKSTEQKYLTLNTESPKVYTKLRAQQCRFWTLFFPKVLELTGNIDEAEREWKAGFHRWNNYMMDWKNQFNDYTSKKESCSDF
Put plainly: Cholinesterase inhibition assay (modified Ellman's method), eqBChE. The series is classed as biochemical.
From the text: as §1

eeAChE (Electrophorus electricus AChE), sequence (O42275 24-633): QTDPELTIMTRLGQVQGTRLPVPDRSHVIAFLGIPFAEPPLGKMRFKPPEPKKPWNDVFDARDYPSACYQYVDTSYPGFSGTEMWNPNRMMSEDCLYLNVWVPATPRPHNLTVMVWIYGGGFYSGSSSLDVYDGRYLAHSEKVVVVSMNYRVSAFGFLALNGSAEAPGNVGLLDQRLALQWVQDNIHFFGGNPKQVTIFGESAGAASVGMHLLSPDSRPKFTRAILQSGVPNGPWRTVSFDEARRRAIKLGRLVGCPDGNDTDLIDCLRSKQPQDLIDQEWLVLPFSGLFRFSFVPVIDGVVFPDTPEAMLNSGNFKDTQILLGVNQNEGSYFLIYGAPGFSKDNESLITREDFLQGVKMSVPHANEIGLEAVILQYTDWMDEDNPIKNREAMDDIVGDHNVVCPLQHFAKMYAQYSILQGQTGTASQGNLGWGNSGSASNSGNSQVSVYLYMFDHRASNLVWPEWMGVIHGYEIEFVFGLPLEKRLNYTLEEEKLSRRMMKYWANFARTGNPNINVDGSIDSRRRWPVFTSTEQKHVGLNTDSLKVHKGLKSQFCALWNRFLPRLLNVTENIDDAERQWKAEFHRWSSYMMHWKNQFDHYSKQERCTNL

Take `COc1ccc2c(=O)c3cc4c(cc3oc2c1)-c1cc(F)ccc1OC4` [Compound 11q, 2-Fluoro-11-methoxy-6H,8H-chromeno[3,4-b]xanthen-8-one]: in series [1], the IC50 (commonly the concentration at which inhibition is half-maximal) is 4.3 ± 1.5 µM. For the same compound, the inhibition (usually how much of the control response was suppressed) at 50 µM on Aβ42 aggregation turned out to be 50 ± 6.7%; on Tau protein aggregation, 55 ± 5.9%. For the same compound, the “Prediction (penetration into the CNS)” value in the series “in vitro” is “CNS+ (High BBB permeation predicted (CNS+) P e > 3.93)”. Also, in the series “in vitro”, the Papp – broadly, a coefficient for how fast a substance crosses the barrier – at 2.5 h was 6.04 ± 1.99 ×10⁻⁶ cm/s.
`COc1ccc2c(=O)c3cc4c(cc3oc2c1)-c1cc(Cl)cc(Br)c1OC4` [Compound 11s, 4-Bromo-2-chloro-11-methoxy-6H,8H-chromeno[3,4-b]xanthen-8-one]: the IC50 in series [1] was found to be 1.7 ± 1.2 µM; in series [2] it was 7 ± 0.4 µM. The “SI eeAChE” value in series [1] is 4.12. The inhibition at 50 µM on Aβ42 aggregation was 46 ± 6.3%; on Tau protein aggregation it was 58 ± 7.1%. The “Prediction (penetration into the CNS)” value in “in vitro” is “CNS+ (High BBB permeation predicted (CNS+) P e > 3.93)”. This compound came in with a Papp at 2.5 h in the series “in vitro” of 8.7 ± 0.61 ×10⁻⁶ cm/s.
Regarding `O=c1c2ccccc2oc2cc3c(cc12)COc1c(Br)cc(Cl)cc1-3` [Compound 11k, 4-Bromo-2-chloro-6H,8H-chromeno[3,4-b]xanthen-8-one], the IC50 amounted to 4.2 ± 0.9 µM in series [1] and 6.2 ± 1 µM in series [2]. For the same compound, the “SI eeAChE” value in series [1] is given as 1.48. The inhibition at 50 µM came to 46 ± 3.7% on Aβ42 aggregation and 52 ± 7.2% on Tau protein aggregation. Further, the “Prediction (penetration into the CNS)” value in the series “in vitro” was “CNS± (Uncertain BBB permeation (CNS±) 3.93 > P e > 1.82)”. The compound also registered a Papp at 2.5 h in “in vitro” of 2.3 ± 1.11 ×10⁻⁶ cm/s.
